US20060205669A1, “G-type peptides and other agents to ameliorate atherosclerosis and other pathologies” (The Regents of the University of California, priority 2004, published 2006)

Legend:
cynomologous monkeys = test: Monkey HDL and LDL after oral peptide tested for monocyte chemotactic activity in human artery wall cell cultures; type: in vivo; conditions: five milligrams by stomach tube, 6 hours
Procedure: Five milligrams of the peptide LAEYHAK (SEQ ID NO: 8) synthesized from all D-amino acids was administered to each of four cynomologous monkeys in 2.0 mL of water by stomach tube and followed with 2.0 mL of water as a wash. Six hours later the monkeys were bled and their plasma fractionated by fast protein liquid chromatography (FPLC) and tested in human artery wall cell cultures.

ApoE null mice = test: HDL paraoxonase activity in apoE null mice; type: in vivo; conditions: FIG. 16
Procedure: Female apoE null mice 4 months of age (n=4 per group) were administered by intraperitoneal injection either scrambled D-4F (a non-active control peptide) or D-4F at 10 μg/mouse or the peptide Ac-KWIYHLTEGSTDLRTEG-NH2 (SEQ ID NO:643) synthesized from L-amino acids (L-ApoM) at 50 μg/mouse. The mice were bled 2 or 6 hours later and their HDL isolated by FPLC and the paraoxonase activity in the HDL determined and plotted on the X-axis. Other 4-month-old female apoE null mice (n=4 per group) were administered by gastric gavage the peptide Ac-KWIYHLTEGSTDLRTEG-NH2 (SEQ ID NO:643) synthesized from L-amino acids (L-ApoM) at 100 μg/mouse (L-ApoM by gavage). The mice were bled 6 hours later and their HDL isolated by FPLC and the paraoxonase activity in the HDL determined and plotted on the X-axis.

Substance	monocyte chemotactic activity with hLDL plus monkey HDL taken after peptide versus time zero (cynomologous monkeys; monkey HDL 50 μg/mL HDL-cholesterol, FIG. 17 panel B)	monocyte chemotactic activity induced by monkey LDL taken after peptide versus time zero (cynomologous monkeys; monkey LDL 100 μg/mL LDL-cholesterol, FIG. 17 panel C)	HDL paraoxonase activity (ApoE null mice; gastric gavage 100 μg/mouse, bled 6 hours later)	HDL paraoxonase activity (ApoE null mice; intraperitoneal injection 50 μg/mouse, bled 2 or 6 hours later)
LAEYHAK (Synthetic peptide. Can be protected or unprotected as shown in specification.)	significantly reduced monocyte chemotactic activity	significantly less monocyte chemotactic activity	–	–
Ac-KWIYHLTEGSTDLRTEG-NH2 [L-ApoM]	–	–	increased paraoxonase activity	increased paraoxonase activity
